The record followed here is ChEMBL document CHEMBL4665919, “Novel Tricyclic Pyroglutamide Derivatives as Potent RORγt Inverse Agonists Identified using a Virtual Screening Approach” (ACS Med Chem Lett, 2020).

Data set [1] in a line: Cmax in IL-23 induced acanthosis C57BL/6 mouse model of psoriasis measured as (3R,5S)-3-Fluoro-5-((3aR,9bR)-9b-((4-fluorophenyl)sulfonyl)-7-(perfluoropropan-2-yl)-2,3,3a,4,5,9b-hexahydro-1H-benzo[e]indole-3-carbonyl)-1-(2-hydroxy-2-methylpropyl)pyrrolidin-2-one at 5 mg/kg, po qd administered for 9 days 2 hrs before IL-23 injection. In kind it is ADME, organism-based. The arrangement: route oral, dose 5 mg/kg, time 9 day. The note with it: in vivo, 216 h.

Data set [2] concerns Mus musculus. The data set is described as follows: Suppression of ear thickness in IL-23 induced acanthosis C57BL/6 mouse model of psoriasis measured as (3R,5S)-3-Fluoro-5-((3aR,9bR)-9b-((4-fluorophenyl)sulfonyl)-7-(perfluoropropan-2-yl)-2,3,3a,4,5,9b-hexahydro-1H-benzo[e]indole-3-carbonyl)-1-(2-hydroxy-2-methylpropyl)pyrrolidin-2-one at 45 mg/kg, po qd administered for 9 days 2 hrs before IL-23 injection measured every other day relative to IL-23 antibody treatment. In kind it is functional. The following applies: C57BL/6, po, 216 h, time 9 day.

Data set [3] relates to Mus musculus. The data set is described as follows: Suppression of ear thickness in IL-23 induced acanthosis C57BL/6 mouse model of psoriasis measured as (3R,5S)-3-Fluoro-5-((3aR,9bR)-9b-((4-fluorophenyl)sulfonyl)-7-(perfluoropropan-2-yl)-2,3,3a,4,5,9b-hexahydro-1H-benzo[e]indole-3-carbonyl)-1-(2-hydroxy-2-methylpropyl)pyrrolidin-2-one at 15 mg/kg, po qd for 9 days 2 hrs before IL-23 injection measured every other day relative to IL-23 antibody treatment. In kind it is functional. The note with it: C57BL/6, po, 216 h, time 9 day.

Data set [4] can be described thus: Toxicity in IL-23 induced acanthosis C57BL/6 mouse model of psoriasis assessed as change in body weight measured as (3R,5S)-3-Fluoro-5-((3aR,9bR)-9b-((4-fluorophenyl)sulfonyl)-7-(perfluoropropan-2-yl)-2,3,3a,4,5,9b-hexahydro-1H-benzo[e]indole-3-carbonyl)-1-(2-hydroxy-2-methylpropyl)pyrrolidin-2-one at 5 to 45 mg/kg, po qd administered for 9 days 2 hrs before IL-23 injection measured every other day. It is filed as organism-based. The following applies: in vivo, dose 5-45 mg/kg.

Data set [5] in a line: Drug concentration in IL-23 induced acanthosis in C57BL/6 mouse measured as (3R,5S)-3-Fluoro-5-((3aR,9bR)-9b-((4-fluorophenyl)sulfonyl)-7-(perfluoropropan-2-yl)-2,3,3a,4,5,9b-hexahydro-1H-benzo[e]indole-3-carbonyl)-1-(2-hydroxy-2-methylpropyl)pyrrolidin-2-one at 5 mg/kg, po qd administered for 2 hrs before IL-23 injection measured on day 1. It is filed as ADME, organism-based. The note with it: in vivo, 24 h, time 1 day, read-out: Ct.

Data set [6] in a line: AUC in IL-23 induced acanthosis C57BL/6 mouse model of psoriasis measured as (3R,5S)-3-Fluoro-5-((3aR,9bR)-9b-((4-fluorophenyl)sulfonyl)-7-(perfluoropropan-2-yl)-2,3,3a,4,5,9b-hexahydro-1H-benzo[e]indole-3-carbonyl)-1-(2-hydroxy-2-methylpropyl)pyrrolidin-2-one at 5 mg/kg, po qd administered for 2 hrs before IL-23 injection measured on day 1. It is filed as ADME, organism-based. The arrangement: time 1 day, dose 5 mg/kg. The following applies: in vivo, 24 h.

A short description of data set [7]: AUC in IL-23 induced acanthosis C57BL/6 mouse model of psoriasis measured as (3R,5S)-3-Fluoro-5-((3aR,9bR)-9b-((4-fluorophenyl)sulfonyl)-7-(perfluoropropan-2-yl)-2,3,3a,4,5,9b-hexahydro-1H-benzo[e]indole-3-carbonyl)-1-(2-hydroxy-2-methylpropyl)pyrrolidin-2-one at 15 mg/kg, po qd administered for 2 hrs before IL-23 injection measured on day 1. In kind it is ADME, organism-based. The arrangement: time 1 day, dose 15 mg/kg. The note with it: in vivo, 24 h.

The nature of data set [8]: AUC in IL-23 induced acanthosis C57BL/6 mouse model of psoriasis measured as (3R,5S)-3-Fluoro-5-((3aR,9bR)-9b-((4-fluorophenyl)sulfonyl)-7-(perfluoropropan-2-yl)-2,3,3a,4,5,9b-hexahydro-1H-benzo[e]indole-3-carbonyl)-1-(2-hydroxy-2-methylpropyl)pyrrolidin-2-one at 45 mg/kg, po qd administered for 2 hrs before IL-23 injection measured on day 1. In kind it is ADME, organism-based. The arrangement: time 1 day, dose 45 mg/kg. The following applies: in vivo, 24 h.

Data set [9] in a line: AUC in IL-23 induced acanthosis C57BL/6 mouse model of psoriasis measured as (3R,5S)-3-Fluoro-5-((3aR,9bR)-9b-((4-fluorophenyl)sulfonyl)-7-(perfluoropropan-2-yl)-2,3,3a,4,5,9b-hexahydro-1H-benzo[e]indole-3-carbonyl)-1-(2-hydroxy-2-methylpropyl)pyrrolidin-2-one at 5 mg/kg, po qd administered for 9 days 2 hrs before IL-23 injection. It is filed as ADME, organism-based. The arrangement: dose 5 mg/kg, time 9 day. The following applies: in vivo, 216 h.

Data set [10] in a line: AUC in IL-23 induced acanthosis C57BL/6 mouse model of psoriasis measured as (3R,5S)-3-Fluoro-5-((3aR,9bR)-9b-((4-fluorophenyl)sulfonyl)-7-(perfluoropropan-2-yl)-2,3,3a,4,5,9b-hexahydro-1H-benzo[e]indole-3-carbonyl)-1-(2-hydroxy-2-methylpropyl)pyrrolidin-2-one at 15 mg/kg, po qd administered for 9 days 2 hrs before IL-23 injection. The following applies: in vivo, 216 h. The arrangement: time 9 day, dose 15 mg/kg. In kind it is ADME, organism-based.

Data set [11] can be described thus: AUC in IL-23 induced acanthosis C57BL/6 mouse model of psoriasis measured as (3R,5S)-3-Fluoro-5-((3aR,9bR)-9b-((4-fluorophenyl)sulfonyl)-7-(perfluoropropan-2-yl)-2,3,3a,4,5,9b-hexahydro-1H-benzo[e]indole-3-carbonyl)-1-(2-hydroxy-2-methylpropyl)pyrrolidin-2-one at 45 mg/kg, po qd administered for 9 days 2 hrs before IL-23 injection. It is filed as ADME, organism-based. The arrangement: time 9 day, dose 45 mg/kg. The following applies: in vivo, 216 h.

The nature of data set [12]: Cmax in IL-23 induced acanthosis C57BL/6 mouse model of psoriasis measured as (3R,5S)-3-Fluoro-5-((3aR,9bR)-9b-((4-fluorophenyl)sulfonyl)-7-(perfluoropropan-2-yl)-2,3,3a,4,5,9b-hexahydro-1H-benzo[e]indole-3-carbonyl)-1-(2-hydroxy-2-methylpropyl)pyrrolidin-2-one at 15 mg/kg, po qd administered for 9 days 2 hrs before IL-23 injection. In kind it is ADME, organism-based. The arrangement: route oral, dose 15 mg/kg, time 9 day. The following applies: in vivo, 216 h.

The nature of data set [13]: Cmax in IL-23 induced acanthosis C57BL/6 mouse model of psoriasis measured as (3R,5S)-3-Fluoro-5-((3aR,9bR)-9b-((4-fluorophenyl)sulfonyl)-7-(perfluoropropan-2-yl)-2,3,3a,4,5,9b-hexahydro-1H-benzo[e]indole-3-carbonyl)-1-(2-hydroxy-2-methylpropyl)pyrrolidin-2-one at 45 mg/kg, po qd administered for 9 days 2 hrs before IL-23 injection. In kind it is ADME, organism-based. Further details: route oral, dose 45 mg/kg, time 9 day. The note with it: in vivo, 216 h.

A short description of data set [14]: Drug concentration in IL-23 induced acanthosis in C57BL/6 mouse measured as (3R,5S)-3-Fluoro-5-((3aR,9bR)-9b-((4-fluorophenyl)sulfonyl)-7-(perfluoropropan-2-yl)-2,3,3a,4,5,9b-hexahydro-1H-benzo[e]indole-3-carbonyl)-1-(2-hydroxy-2-methylpropyl)pyrrolidin-2-one at 15 mg/kg, po qd administered for 2 hrs before IL-23 injection measured on day 1. In kind it is ADME, organism-based. The note with it: in vivo, 24 h, time 1 day, read-out: Ct.

A short description of data set [15]: Drug concentration in IL-23 induced acanthosis in C57BL/6 mouse measured as (3R,5S)-3-Fluoro-5-((3aR,9bR)-9b-((4-fluorophenyl)sulfonyl)-7-(perfluoropropan-2-yl)-2,3,3a,4,5,9b-hexahydro-1H-benzo[e]indole-3-carbonyl)-1-(2-hydroxy-2-methylpropyl)pyrrolidin-2-one at 45 mg/kg, po qd administered for 2 hrs before IL-23 injection measured on day 11. It is filed as ADME, organism-based. The following applies: in vivo, 24 h, time 1 day, read-out: Ct.

The nature of data set [16]: Drug concentration in IL-23 induced acanthosis in C57BL/6 mouse measured as (3R,5S)-3-Fluoro-5-((3aR,9bR)-9b-((4-fluorophenyl)sulfonyl)-7-(perfluoropropan-2-yl)-2,3,3a,4,5,9b-hexahydro-1H-benzo[e]indole-3-carbonyl)-1-(2-hydroxy-2-methylpropyl)pyrrolidin-2-one at 15 mg/kg, po qd administered for 9 days 2 hrs before IL-23 injection. The following applies: in vivo, 216 h, time 9 day, read-out: Ct. In kind it is ADME, organism-based.

Data set [17] can be described thus: Drug concentration in IL-23 induced acanthosis in C57BL/6 mouse measured as (3R,5S)-3-Fluoro-5-((3aR,9bR)-9b-((4-fluorophenyl)sulfonyl)-7-(perfluoropropan-2-yl)-2,3,3a,4,5,9b-hexahydro-1H-benzo[e]indole-3-carbonyl)-1-(2-hydroxy-2-methylpropyl)pyrrolidin-2-one at 5 mg/kg, po qd administered for 9 days 2 hrs before IL-23 injection. In kind it is ADME, organism-based. The following applies: in vivo, 216 h, time 9 day, read-out: Ct.

The nature of data set [18]: Drug concentration in IL-23 induced acanthosis in C57BL/6 mouse measured as (3R,5S)-3-Fluoro-5-((3aR,9bR)-9b-((4-fluorophenyl)sulfonyl)-7-(perfluoropropan-2-yl)-2,3,3a,4,5,9b-hexahydro-1H-benzo[e]indole-3-carbonyl)-1-(2-hydroxy-2-methylpropyl)pyrrolidin-2-one at 45 mg/kg, po qd administered for 9 days 2 hrs before IL-23 injection. It is filed as ADME, organism-based. The following applies: in vivo, 216 h, time 9 day, read-out: Ct.

Data set [19] can be described thus: Ratio of IC90 for inverse agonist activity at RORgammat in human whole blood assessed as IL-17 production by ELISA to drug concentration in IL-23 induced acanthosis in Th17 mouse measured as (3R,5S)-3-Fluoro-5-((3aR,9bR)-9b-((4-fluorophenyl)sulfonyl)-7-(perfluoropropan-2-yl)-2,3,3a,4,5,9b-hexahydro-1H-benzo[e]indole-3-carbonyl)-1-(2-hydroxy-2-methylpropyl)pyrrolidin-2-one at 5 mg/kg, po qd administered for 9 days 2 hrs before IL-23 injection. Background: An ELISA detects its analyte on a solid surface through an enzyme-linked reagent.

A short description of data set [20]: Ratio of IC90 for inverse agonist activity at RORgammat in human whole blood assessed as IL-17 production by ELISA to drug concentration in IL-23 induced acanthosis in Th17 mouse measured as (3R,5S)-3-Fluoro-5-((3aR,9bR)-9b-((4-fluorophenyl)sulfonyl)-7-(perfluoropropan-2-yl)-2,3,3a,4,5,9b-hexahydro-1H-benzo[e]indole-3-carbonyl)-1-(2-hydroxy-2-methylpropyl)pyrrolidin-2-one at 15 mg/kg, po qd ….

A short description of data set [21]: Ratio of IC90 for inverse agonist activity at RORgammat in human whole blood assessed as IL-17 production by ELISA to drug concentration in IL-23 induced acanthosis in […] mouse measured as (3R,5S)-3-Fluoro-5-((3aR,9bR)-9b-((4-fluorophenyl)sulfonyl)-7-(perfluoropropan-2-yl)-2,3,3a,4,5,9b-hexahydro-1H-benzo[e]indole-3-carbonyl)-1-(2-hydroxy-2-methylpropyl)pyrrolidin-2-one at 45 mg/kg, po qd ….

Data set [22] is described as follows: Solubility of the compound at pH 6.7. It is filed as physicochemical. The note with it: buffer.

As for `CC(C)(CN1C(=O)[C@H](F)C[C@H]1C(=O)N1CC[C@@]2(S(=O)(=O)c3ccc(F)cc3)c3ccc(C(F)(C(F)(F)F)C(F)(F)F)cc3CC[C@@H]12)OP(=O)(O)O`, the Cmax in [1] came out at 650 nM; in [12], 2580 nM; in data set [13] it was 8340 nM. The compound further registered an inhibition in vivo at 45 mg/kg with Mus musculus [2] of 67%. In addition, the inhibition in vivo at 15 mg/kg in the data set with Mus musculus [3] came to 38%. The Activity result in data set [4] is “Non-Toxic”. Besides, the concentration in data set [5] was 210 nM; in [14] it was 480 nM; in data set [15], 910 nM; in data set [16], 1360 nM; in data set [17], 150 nM; in [18], 5820 nM. Also, the area under the curve (AUC) in data set [6] worked out at 13.9 µM·h; in [7], 30.9 µM·h; in data set [8], 274.3 µM·h; in [9] it was 9 µM·h; in data set [10] it was 45.2 µM·h; in data set [11] it was 162.9 µM·h. The figures for the Ratio in data set [19], in [20] and in data set [21] were 0.4, 3.2 and 13.9, respectively. The compound further registered a solubility in data set [22] of at least 4700 µg/mL.

The term Cmax denotes the maximum level reached in the sampled fluid or tissue. In general, inhibition in vivo refers to the share of the control response that was lost under treatment. For orientation: AUC means the area under the concentration-time curve, a measure of exposure. Higher therefore signals high exposure. The solubility is the dissolved amount per volume that the medium holds.
